Measurements as given in ChEMBL document CHEMBL3272045, “4-amino-6-(trichloroethenyl)-1,3-benzenedisulfonamide, a new, potent fasciolicide” (J Med Chem, 1977).

Legend:
Fasciola hepatica [1] = test: Fasciolicidal activity against Fasciola hepatica metacercariae infected in po dosed rat assessed as elimination of liver flukes administered as single dose; type: functional; details: read-out: MED
Fasciola hepatica [2] = test: Fasciolicidal activity against Fasciola hepatica metacercariae infected in rat assessed as elimination of liver flukes at 3.1 mg/kg, po administered as single dose; type: functional
Fasciola hepatica [3] = test: Fasciolicidal activity against Fasciola hepatica metacercariae infected in sheep assessed as elimination of liver flukes at 15 mg/kg, po measured 6 weeks after infection; type: functional; details: 1008 h
Fasciola hepatica [4] = test: Fasciolicidal activity against Fasciola hepatica metacercariae infected in calves assessed as elimination of liver flukes at 15 mg/kg, po measured 8 weeks after infection; type: functional; details: 1344 h
Fasciola hepatica [5] = test: Fasciolicidal activity against Fasciola hepatica metacercariae infected in sheep assessed as elimination of liver flukes at 2.5 mg/kg, po measured 16 weeks after infection; type: functional; details: 2688 h
Ovis aries = test: Toxicity in Fasciola hepatica metacercariae infected in sheep assessed as induction of gross toxic reactions at 200 to 400 mg/kg, po administered as single dose; type: organism-based; set-up: dose 200-400 mg/kg, route oral; details: in vivo

| Compound | minimal effective dose (Fasciola hepatica [1]) [mg/kg] | inhibition in vivo at 3.1 mg/kg (Fasciola hepatica [2]) [%] | inhibition in vivo at 15 mg/kg (Fasciola hepatica [3]) [%] | inhibition in vivo at 15 mg/kg (Fasciola hepatica [4]) [%] | inhibition in vivo at 2.5 mg/kg (Fasciola hepatica [5]) [%] | Activity (Ovis aries) |
| --- | --- | --- | --- | --- | --- | --- |
| O=C(Nc1ccc(Oc2ccc(Cl)cc2)c(Cl)c1)c1cc(I)cc(I)c1O [RAFOXANIDE] | 3.1 |  |  |  |  |  |
| Nc1cc(C(Cl)=C(Cl)Cl)c(S(N)(=O)=O)cc1S(N)(=O)=O [CLORSULON] |  | > 90 | > 90 | > 90 | 90 | Non-toxic |
